Reference: the NIST ThermoML archive (doi:10.1021/je700287u)
± gives the expanded uncertainty stated by the source.

Experiment: xn = mol fraction of the nth substance listed
Settings: Liquid

CN(CCO)CCO [N-methyldiethanolamine] + O
Settings	mass density [kg/m3]
352.84 K, 15989 kPa, x1 = 0.1302	1010.4 ± 0.4
352.84 K, 16976 kPa, x1 = 0.1302	1010.8 ± 0.4
352.84 K, 17977 kPa, x1 = 0.1302	1011.2 ± 0.4
352.84 K, 18979 kPa, x1 = 0.1302	1011.6 ± 0.4
352.84 K, 19995 kPa, x1 = 0.1302	1012 ± 0.4
352.85 K, 1004 kPa, x1 = 0.0369	983.9 ± 0.4
352.85 K, 2037 kPa, x1 = 0.0369	984.4 ± 0.4
352.85 K, 2962 kPa, x1 = 0.0369	984.8 ± 0.4
352.85 K, 4014 kPa, x1 = 0.0369	985.2 ± 0.4
352.85 K, 4994 kPa, x1 = 0.0369	985.6 ± 0.4
352.85 K, 6034 kPa, x1 = 0.0369	986.1 ± 0.4
352.85 K, 6999 kPa, x1 = 0.0369	986.5 ± 0.4
352.85 K, 8019 kPa, x1 = 0.0369	987 ± 0.4
352.85 K, 8987 kPa, x1 = 0.0369	987.3 ± 0.4
352.85 K, 9992 kPa, x1 = 0.0369	987.8 ± 0.4
352.85 K, 10987 kPa, x1 = 0.0369	988.2 ± 0.4
352.85 K, 11994 kPa, x1 = 0.0369	988.6 ± 0.4
352.85 K, 12978 kPa, x1 = 0.0369	989.1 ± 0.4
352.85 K, 13987 kPa, x1 = 0.0369	989.4 ± 0.4
352.85 K, 14998 kPa, x1 = 0.0369	989.9 ± 0.4
352.85 K, 15956 kPa, x1 = 0.0369	990.2 ± 0.4
352.85 K, 16987 kPa, x1 = 0.0369	990.7 ± 0.4
352.85 K, 17991 kPa, x1 = 0.0369	991.1 ± 0.4
352.85 K, 18986 kPa, x1 = 0.0369	991.5 ± 0.4
352.85 K, 19988 kPa, x1 = 0.0369	991.9 ± 0.4
352.88 K, 1037 kPa, x1 = 0.0893	998.6 ± 0.4
352.88 K, 2010 kPa, x1 = 0.0893	999 ± 0.4
352.88 K, 3005 kPa, x1 = 0.0893	999.5 ± 0.4
352.88 K, 4010 kPa, x1 = 0.0893	999.9 ± 0.4
352.88 K, 4999 kPa, x1 = 0.0893	1000.3 ± 0.4
352.88 K, 5993 kPa, x1 = 0.0893	1000.7 ± 0.4
352.88 K, 7000 kPa, x1 = 0.0893	1001.1 ± 0.4
352.88 K, 7998 kPa, x1 = 0.0893	1001.6 ± 0.4
352.88 K, 8982 kPa, x1 = 0.0893	1002 ± 0.4
352.88 K, 9977 kPa, x1 = 0.0893	1002.4 ± 0.4
352.88 K, 10995 kPa, x1 = 0.0893	1002.8 ± 0.4
352.88 K, 11987 kPa, x1 = 0.0893	1003.3 ± 0.4
352.88 K, 12999 kPa, x1 = 0.0893	1003.7 ± 0.4
352.88 K, 13990 kPa, x1 = 0.0893	1004.1 ± 0.4
352.88 K, 14969 kPa, x1 = 0.0893	1004.5 ± 0.4
352.88 K, 15990 kPa, x1 = 0.0893	1004.9 ± 0.4
352.88 K, 16991 kPa, x1 = 0.0893	1005.3 ± 0.4
352.88 K, 18009 kPa, x1 = 0.0893	1005.8 ± 0.4
352.88 K, 18994 kPa, x1 = 0.0893	1006.2 ± 0.4
352.88 K, 20015 kPa, x1 = 0.0893	1006.6 ± 0.4
362.71 K, 1012 kPa, x1 = 0.0369	977.3 ± 0.4
362.71 K, 2054 kPa, x1 = 0.0369	977.8 ± 0.4
362.71 K, 3004 kPa, x1 = 0.0369	978.2 ± 0.4
362.71 K, 3981 kPa, x1 = 0.0369	978.6 ± 0.4
362.71 K, 4997 kPa, x1 = 0.0369	979.1 ± 0.4
362.71 K, 6006 kPa, x1 = 0.0369	979.5 ± 0.4
362.71 K, 7005 kPa, x1 = 0.0369	979.9 ± 0.4
362.71 K, 7962 kPa, x1 = 0.0369	980.3 ± 0.4
362.71 K, 8999 kPa, x1 = 0.0369	980.8 ± 0.4
362.71 K, 9999 kPa, x1 = 0.0369	981.2 ± 0.4
362.71 K, 10997 kPa, x1 = 0.0369	981.6 ± 0.4
362.71 K, 11979 kPa, x1 = 0.0369	982 ± 0.4
362.71 K, 12988 kPa, x1 = 0.0369	982.5 ± 0.4
362.71 K, 13990 kPa, x1 = 0.0369	982.9 ± 0.4
362.71 K, 14982 kPa, x1 = 0.0369	983.4 ± 0.4
362.71 K, 15982 kPa, x1 = 0.0369	983.8 ± 0.4
362.71 K, 16992 kPa, x1 = 0.0369	984.2 ± 0.4
362.71 K, 17958 kPa, x1 = 0.0369	984.6 ± 0.4
362.71 K, 18984 kPa, x1 = 0.0369	985.1 ± 0.4
362.71 K, 19984 kPa, x1 = 0.0369	985.5 ± 0.4
362.72 K, 1043 kPa, x1 = 0.1302	995.9 ± 0.4
362.72 K, 2117 kPa, x1 = 0.1302	996.4 ± 0.4
362.72 K, 3008 kPa, x1 = 0.1302	996.8 ± 0.4
362.72 K, 3995 kPa, x1 = 0.1302	997.3 ± 0.4
362.72 K, 5002 kPa, x1 = 0.1302	997.8 ± 0.4
362.72 K, 5994 kPa, x1 = 0.1302	998.2 ± 0.4
362.72 K, 6994 kPa, x1 = 0.1302	998.6 ± 0.4
362.72 K, 8003 kPa, x1 = 0.1302	999.1 ± 0.4
362.72 K, 8988 kPa, x1 = 0.1302	999.6 ± 0.4
362.72 K, 9991 kPa, x1 = 0.1302	1000 ± 0.4
362.72 K, 11003 kPa, x1 = 0.1302	1000.4 ± 0.4
362.72 K, 12036 kPa, x1 = 0.1302	1000.9 ± 0.4
362.72 K, 13005 kPa, x1 = 0.1302	1001.3 ± 0.4
362.72 K, 13983 kPa, x1 = 0.1302	1001.7 ± 0.4
362.72 K, 14984 kPa, x1 = 0.1302	1002.2 ± 0.4
362.72 K, 15981 kPa, x1 = 0.1302	1002.6 ± 0.4
362.72 K, 16993 kPa, x1 = 0.1302	1003 ± 0.4
362.72 K, 17988 kPa, x1 = 0.1302	1003.5 ± 0.4
362.72 K, 18994 kPa, x1 = 0.1302	1003.9 ± 0.4
362.72 K, 19995 kPa, x1 = 0.1302	1004.4 ± 0.4
362.75 K, 993 kPa, x1 = 0.0893	990.9 ± 0.4
362.75 K, 2025 kPa, x1 = 0.0893	991.3 ± 0.4
362.75 K, 3013 kPa, x1 = 0.0893	991.8 ± 0.4
362.75 K, 3995 kPa, x1 = 0.0893	992.2 ± 0.4
362.75 K, 5018 kPa, x1 = 0.0893	992.7 ± 0.4
362.75 K, 6003 kPa, x1 = 0.0893	993.1 ± 0.4
362.75 K, 6988 kPa, x1 = 0.0893	993.6 ± 0.4
362.75 K, 8002 kPa, x1 = 0.0893	994 ± 0.4
362.75 K, 8996 kPa, x1 = 0.0893	994.4 ± 0.4
362.75 K, 10040 kPa, x1 = 0.0893	994.9 ± 0.4
362.75 K, 11000 kPa, x1 = 0.0893	995.3 ± 0.4
362.75 K, 11988 kPa, x1 = 0.0893	995.7 ± 0.4
362.75 K, 12992 kPa, x1 = 0.0893	996.1 ± 0.4
362.75 K, 13990 kPa, x1 = 0.0893	996.6 ± 0.4
362.75 K, 14990 kPa, x1 = 0.0893	997 ± 0.4
362.75 K, 15993 kPa, x1 = 0.0893	997.5 ± 0.4
362.75 K, 17004 kPa, x1 = 0.0893	997.9 ± 0.4
362.75 K, 17984 kPa, x1 = 0.0893	998.3 ± 0.4
362.75 K, 19022 kPa, x1 = 0.0893	998.7 ± 0.4
362.75 K, 19984 kPa, x1 = 0.0893	999.2 ± 0.4
